The text below walks through data of BindingDB's records for patent US20240342186 (Boehringer Ingelheim International, 2024).

The term IC50 denotes the midpoint of a concentration-inhibition curve. A high value points to weaker potency.

Chain of Cyclic GMP-AMP synthase (Q8N884 whole entry): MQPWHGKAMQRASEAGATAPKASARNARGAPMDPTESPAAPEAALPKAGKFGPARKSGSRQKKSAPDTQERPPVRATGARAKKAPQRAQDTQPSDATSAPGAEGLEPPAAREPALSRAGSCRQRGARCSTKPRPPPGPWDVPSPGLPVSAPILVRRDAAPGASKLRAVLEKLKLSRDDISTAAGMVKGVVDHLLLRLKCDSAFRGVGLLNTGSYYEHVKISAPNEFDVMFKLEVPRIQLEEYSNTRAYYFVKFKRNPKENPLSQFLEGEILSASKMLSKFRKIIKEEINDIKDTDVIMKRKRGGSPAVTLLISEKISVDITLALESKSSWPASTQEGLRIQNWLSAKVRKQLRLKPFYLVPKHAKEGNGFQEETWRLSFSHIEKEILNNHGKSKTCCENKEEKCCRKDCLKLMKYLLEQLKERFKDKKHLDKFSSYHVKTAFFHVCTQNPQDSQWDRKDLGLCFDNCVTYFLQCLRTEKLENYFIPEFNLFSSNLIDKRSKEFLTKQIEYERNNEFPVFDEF

This assay addresses Cyclic GMP-AMP synthase (Homo sapiens, UniProt Q8N884). The experiment in a line: Biochemical (In Vitro) Assay.
Compound `O=C(O)[C@@H]1C[C@H](Oc2ncc(Br)cc2N2CCOC3(COC3)C2)CN1c1nc(C(F)F)nc2c1oc1ccccc12` [US20240342186, Example 1.24] gave an IC50 of 9 nM. For `CC1(C#N)CCCN(c2cc(Cl)cnc2O[C@H]2C[C@@H](C(=O)O)N(c3nc(C(F)F)nc4c3oc3ccccc34)C2)C1` (stereo partly drawn) [US20240342186, Example 1.04] the value was 6 nM; for `C#Cc1cnc(O[C@H]2C[C@@H](C(=O)O)N(c3nc(C(F)F)nc4c3oc3ccccc34)C2)c(N2CCOC3(COC3)C2)c1` [US20240342186, Example 1.25], 4 nM.
